Measured values taken from paper PMC2119975 (The Journal of Cell Biology, 1994).

Key:
[1] = test system: HT1080 human fibrosarcoma cells; experiment: Cell adhesion assay, HT1080 cells; type: cell-based; conditions: Fig. 7 B; coating and inhibitor 100 μM; EDTA 2 mM; cells preincubated
type II alveolar cells = experiment: Alveolar inhibition studies on gelled BMS; type: cell-based, rat; conditions: Fig. 6; cells preincubated with peptide, up to 700 μM; day five; n = 9

Row | Compound | Inhibition of HT1080 cell adhesion to SN-peptide [1] | Effect of tryptic peptides of SN-peptide on alveolar formation (type II alveolar cells)
1 | O=C(O)CN(CCN(CC(=O)O)CC(=O)O)CC(=O)O [EDTA] | inhibited | 
2 | FGNMGS |  | minimal
3 | WHSIYITR |  | partial
